Assay results reported in patent US9119398B2, “Plant growth regulating compounds” (Syngenta Participations AG, priority 2012, dated 2015).

Experiments:
[1] = tested on: Orobanche cumana Wallr. seeds; assay: Germination of preconditioned Orobanche cumana seeds on glass fiber filter paper in petri dishes; type: in vivo; details: mean, N = 5 × 100 seeds, seed lot IN153
Protocol: The effect of compounds of Formula (I) on germination of Orobanche cumana Wallr. seeds was evaluated on glass fiber filter paper (GFFP) in petri dishes. Seeds were preconditioned at moisture and suitable temperature to become responsive to the specific chemical germination stimulants.
Test compounds were dissolved in DMSO (10 000 mg l^−1) and stored at room temperature in a desiccators with desiccants. The stock solutions were dissolved with deionised water to the appropriate final test concentration.
Seeds of O. cumana race ‘F’ (IN153) were collected from a sunflower field in Manzanilla (Seville, Spain) in 2006 and stored at room temperature. To separate seeds from heavy organic debris, a modified sucrose floatation technique as described by Hartman & Tanimonure (Plant Disease (1991), 75, p. 494) was applied. Seeds were filled into a separation funnel and stirred in water. When seeds floated to the surface, the water fraction containing heavy debris was discarded. Seeds were re-suspended in 2.5M sucrose solution (specific gravity of 1.20) and heavy debris was allowed to settle down for 60 min After removing debris, seeds were disinfected in 1% sodium hypochlorite solution and 0.025% (v/v) Tween 20 for 2 min. The seeds were decanted onto two layers of cheesecloth, rinsed with sterile deionised water and re-suspended in sterile deionised water. Two ml of the seed suspension containing approximately 150-400 seeds were spread evenly on two layers of sterile glass fiber filter paper disc ([…]) in Petri dishes (Ø9 cm). After wetting the discs with 3 ml sterile deionised water, petri dishes were sealed with parafilm. Seeds were incubated for 10 days at 20° C. in the dark for seed conditioning. The upper disc with conditioned seeds was briefly dried, transferred to a petri dish lined with a dry GFFP disc, and wetted with 6 ml of the appropriate test solution. The compounds of Formula (I) were tested at concentrations of 0.001, 0.01, 0.1, or 1 mg l^−. The strigolactone analogue GR24 was included as positive control and 0.01% DMSO as negative control. All treatments were tested in five replicates. Seeds were re-incubated at 20° C. in the dark and examined for germination 10 days later. The radicles of germinated seeds were stained for 5 min with blue ink (MIGROS, Switzerland) in 5% acetic acid according to Long et al. (Seed Science Research (2008), 18, p. 125). After staining, seeds were photographed using a camera stand mounted with a digital SLR camera (Canon EOS 5D). Germination of 100 seeds per replicate was evaluated on digital images. Seeds were considered germinated when the radicle protruded from the seed coat.

[2] = tested on: Brassica oleracea cv Botrytis (temperate cauliflower) seeds; assay: Paper germination test, temperate cauliflower seeds, 10° C. in the light; type: in vivo; details: 25 μM, sets A and B separate experiments
Protocol: The effect of compounds of Formula (I) on the germination of Brassica oleracea cv Botrytis or common cauliflower was tested on two types of cauliflowers: temperate types and tropical types. These two types were chosen because they display different sensitivities to the light conditions and temperature during germination. Germination of a sensitive temperate type is inhibited by light at 10° C. while for the tropical types germination at 20° is stimulated by the presence of light.
The temperate seed batches tested are part of commercially produced seed batches of various varieties which are known to be sensitive to light at 10° C. These seeds were harvested and cleaned according standard commercial procedures. Ready seed batches were used (Ready indicates the processing level of these seeds: they have been cleaned and sized but received no other treatments). The tropical seed batches tested are part of seed batches produced as basic seed (for maintenance of the parental line) and were processed accordingly.
Germination was assessed using the standard paper germination test for Brassica: Fifty seeds were placed on blue germination paper, which was moistened with the appropriate solutions, in closed oblong germination boxes. Each condition was tested in duplo. Germination boxes were placed in controlled germination cabinets with the appropriate temperature and light conditions. Germination of seeds was counted at regular intervals. Seeds were considered to be germinated when the radical had protruded the testa and endosperm (radical size approximately 1 mm)
Test compounds were dissolved in DMSO at a concentration of 50 mM and stored at −20° C. The strigolactone analogue GR24 (commercially available as a racemic mixture of 2 diastereoisomers, referred to as “synthetic strigolactone GR-24” and first prepared by Johnson A. W. & all, Journal of the Chemical Society, Perkin Transactions 1, 1981, page 1734-1743) was included as positive control. Germination solutions were prepared by diluting the stock solutions with demineralized water till 25 μM. As control solutions demineralized water and a 0.05% v/v DMSO solution were used.

[3] = temperate cauliflower Spacestar seed batch 11B313 (cold-sensitive)
[4] = temperate cauliflower Spacestar seed batch 11B314 (not cold sensitive)
[5] = Table B1, concentration 0.001 mg 1^−1, DMSO control 0.4% germination
[6] = Table B1, concentration 0.1 mg 1^−1, DMSO control 0.4% germination
[7] = Table B1, concentration 1 mg 1^−1, DMSO control 0.4% germination
[8] = Table B2, concentration 0.01 mg 1^−1, DMSO control 2.4% germination
[9] = Table B2, concentration 0.1 mg 1^−1, DMSO control 2.4% germination
[10] = Table B2, concentration 1 mg 1^−1, DMSO control 2.4% germination
[11] = Table B3, concentration 0.001 mg 1^−1, DMSO control 0% germination
[12] = Table B3, concentration 0.01 mg 1^−1, DMSO control 0% germination
[13] = Table B3, concentration 0.1 mg 1^−1, DMSO control 0% germination

CC1=CC(O/C=C2\CCCCNC2=O)OC1=O (centres unmarked) [Ia-13, (3E)-3-[(4-methyl-5-oxo-2H-furan-2-yl)oxymethylene]azepan-2-one]
Germination (%) ([1]; Table B5, concentration 0.01 mg 1^−1 (second column), DMSO control 1.4% germination): 34.2% | Germination (%) ([1]; Table B5, concentration 0.01 mg 1^−1 (third column), DMSO control 1.4% germination): 25.6% | Germination (%) ([1]; Table B5, concentration 1 mg 1^−1, DMSO control 1.4% germination): 70% | Gmax (%), total germination as percentage of sown seeds [2, 3]: 42.3% | stimulation (%), extra germination compared to the DMSO treatment, as percentage of the germination in the DMSO treatment [2, 3]: −21.8% | Gmax (%), total germination as percentage of sown seeds [2, 4]: 92.5% | stimulation (%), extra germination compared to the DMSO treatment, as percentage of the germination in the DMSO treatment [2, 4]: 7.6%

CC1=CC(O/C=C2\CC(C)N(C(=O)OC(C)(C)C)C2=O)OC1=O (centres unmarked) [Ib-6, tert-butyl (3E)-5-methyl-3-[(4-methyl-5-oxo-2H-furan-2-yl)oxymethylene]-2-oxo-pyrrolidine-1-carboxylate]
Germination (%) [1, 5]: 0.4% | Germination (%) [1, 6]: 1.8% | Germination (%) [1, 7]: 5.6%

CC1=CC(O/C=C2\CCCN(c3ccccc3)C2=O)OC1=O (centres unmarked) [I-5, (3E)-3-[(4-methyl-5-oxo-2H-furan-2-yl)oxymethylene]-1-phenyl-piperidin-2-one]
Germination (%) [1, 8]: 1% | Germination (%) [1, 9]: 0% | Germination (%) [1, 10]: 42.2%

CC1=CC(O/C=C2\CCCCN(C(=O)OC(C)(C)C)C2=O)OC1=O (centres unmarked) [Ib-13, tert-butyl (3E)-3-[(4-methyl-5-oxo-2H-furan-2-yl)oxymethylene]-2-oxo-azepane-1-carboxylate]
Germination (%) ([1]; Concentration 0.01 mg l^-1, 10 days at 20° C. in the dark): 48% | Germination (%) ([1]; Concentration 0.01 mg l^-1 as printed, 10 days at 20° C. in the dark): 83% | Germination (%) ([1]; Concentration 1 mg l^-1, 10 days at 20° C. in the dark): 90.8%

CC1=CC(O/C=C2\CC(=O)N(C)C2=O)OC1=O (centres unmarked) [I-7, (3E)-1-methyl-3-[(4-methyl-5-oxo-2H-furan-2-yl)oxymethylene]pyrrolidine-2,5-dione]
Germination (%) [1, 8]: 1% | Germination (%) [1, 9]: 1.4% | Germination (%) [1, 10]: 17.2%

CC1=CC(O/C=C2\CCC(c3ccccc3)N(C(=O)OC(C)(C)C)C2=O)OC1=O (centres unmarked) [Ib-12, tert-butyl (3E)-3-[(4-methyl-5-oxo-2H-furan-2-yl)oxymethylene]-2-oxo-6-phenyl-piperidine-1-carboxylate]
Germination (%) [1, 11]: 91% | Germination (%) [1, 12]: 89% | Germination (%) [1, 13]: 90.2%

CC1=CC(O/C=C2\CC(C)N(c3ccccc3)C2=O)OC1=O (centres unmarked) [I-4, (3E)-5-methyl-3-[(4-methyl-5-oxo-2H-furan-2-yl)oxymethylene]-1-phenyl-pyrrolidin-2-one]
Germination (%) [1, 8]: 0.6% | Germination (%) [1, 9]: 1% | Germination (%) [1, 10]: 18.2%

CC1=CC(O/C=C2\CCN(c3ccccc3)C2=O)OC1=O (centres unmarked) [I-3, (3E)-3-[(4-methyl-5-oxo-2H-furan-2-yl)oxymethylene]-1-phenyl-pyrrolidin-2-one]
Germination (%) [1, 8]: 0% | Germination (%) [1, 9]: 1.6% | Germination (%) [1, 10]: 19.2%

CC1=CC(O/C=C2/C(=O)N(C(=O)OC(C)(C)C)C3CCCC23)OC1=O (centres unmarked) [Ib-2, tert-butyl (3E)-3-[(4-methyl-5-oxo-2H-furan-2-yl)oxymethylene]-2-oxo-4,5,6,6a-tetrahydro-3aH-cyclopenta[b]pyrrole-1-carboxylate]
Germination (%) [1, 5]: 0% | Germination (%) [1, 6]: 18.2% | Germination (%) [1, 7]: 54.8%

CC1=CC(O/C=C2/C(=O)NC3CCCC23)OC1=O (centres unmarked) [Ia-2, (3E)-3-[(4-methyl-5-oxo-2H-furan-2-yl)oxymethylene]-1,3a,4,5,6,6a-hexahydrocyclopenta[b]pyrrol-2-one]
Germination (%) [1, 8]: 75.4% | Germination (%) [1, 9]: 65.4% | Germination (%) [1, 10]: 83.4%

CC1=CC(O/C=C2\CCNC2=O)OC1=O (centres unmarked) [Ia-8, (3E)-3-[(4-methyl-5-oxo-2H-furan-2-yl)oxymethylene]pyrrolidin-2-one]
Gmax (%), total germination as percentage of sown seeds [2, 3]: 77.0% | stimulation (%), extra germination compared to the DMSO treatment, as percentage of the germination in the DMSO treatment [2, 3]: 42.6% | Gmax (%), total germination as percentage of sown seeds [2, 4]: 93.0% | stimulation (%), extra germination compared to the DMSO treatment, as percentage of the germination in the DMSO treatment [2, 4]: 8.1%

CC1=CC(O/C=C2\CCN(C(=O)OC(C)(C)C)C2=O)OC1=O (centres unmarked) [Ib-8, tert-butyl (3E)-3-[(4-methyl-5-oxo-2H-furan-2-yl)oxymethylene]-2-oxo-pyrrolidine-1-carboxylate]
Germination (%) [1, 8]: 0.2% | Germination (%) [1, 9]: 2.8% | Germination (%) [1, 10]: 1.4%

CC1=CC(O/C=C2\CC(c3ccccc3)N(C(=O)OC(C)(C)C)C2=O)OC1=O (centres unmarked) [Ib-10, tert-butyl (3E)-3-[(4-methyl-5-oxo-2H-furan-2-yl)oxymethylene]-2-oxo-5-phenyl-pyrrolidine-1-carboxylate]
Germination (%) [1, 11]: 72.8% | Germination (%) [1, 12]: 72.4% | Germination (%) [1, 13]: 71.8%

CC1=C[C@H](O/C=C2/C(=O)N[C@@H]3C=CC[C@H]23)OC1=O [Ia-1′, (3E,3aR,6aR)-3-[[(2R)-4-methyl-5-oxo-2H-furan-2-yl]oxymethylene]-1,3a,4,6a-tetrahydrocyclopenta[b]pyrrol-2-one]
Germination (%) ([1]; Table B6, concentration 0.001 mg 1^−1, DMSO control 2.4% germination): 68.0% | Germination (%) ([1]; Table B6, concentration 0.1 mg 1^−1, DMSO control 2.4% germination): 55.3% | Germination (%) ([1]; Table B6, concentration 1 mg 1^−1, DMSO control 2.4% germination): 54.8%

CC1=CC(O/C=C2/C(=O)N(C(=O)OC(C)(C)C)C3C=CCC23)OC1=O (centres unmarked) [Ib-1, tert-butyl (3E)-3-[(4-methyl-5-oxo-2H-furan-2-yl)oxymethylene]-2-oxo-4,6a-dihydro-3aH-cyclopenta[b]pyrrole-1-carboxylate]
Germination (%) [1, 5]: 0% | Germination (%) [1, 6]: 25.8% | Germination (%) [1, 7]: 92.6%

CC1=CC(O/C=C2\CCC(c3ccccc3)NC2=O)OC1=O (centres unmarked) [Ia-12, (3E)-3-[(4-methyl-5-oxo-2H-furan-2-yl)oxymethylene]-6-phenyl-piperidin-2-one]
Germination (%) [1, 11]: 93.3% | Germination (%) [1, 12]: 86.8% | Germination (%) [1, 13]: 92.4%
